Structures can show the parent of a compound that is named as a salt.

Here are results for 2 compounds from patent US12043630B2, “Polymorphic form of TG02 for treating cancer” (Cothera Bioscience, Inc., priority 2017, dated 2024).

Data set [1] in a line: Polymorphic form conversion over time. The class given is physicochemical. On the procedure: Preparation: A solution containing TG02·HCl (77.1 g), EtOH (2340 mL) and H2O (185 mL) was heated at reflux for 0.5 h. The mixture was cooled to […] and stirred for 2 h. The mixture was filtered, and the filter cake was washed with EtOH and dried to give TG02 Form VIII (HCl).
In data set [2] the test system is signaling pathways downstream of CDKs, JAK2 and FLT3 in cancer cells. To be noted: cited from earlier work.
The target of the next data set is CDK9 (Homo sapiens, UniProt P50750). The settings on record: cited from earlier work.
The next data set concerns the target JAK2 (Homo sapiens, UniProt O60674). To be noted: cited from earlier work.
Another data set deals with CDK5 (Homo sapiens, UniProt Q00535). The settings on record: cited from earlier work.
The target of the next data set is CDK1 (Homo sapiens, UniProt P06493). To be noted: cited from earlier work.
Another data set relates to tumor cell lines. The settings on record: cited from earlier work.
Data set [3] has as its system progenitor cells derived from acute myeloid leukemia (AML) and polycythemia vera patients. The settings on record: cited from earlier work.
For the next data set, the target named is CDK2 (Homo sapiens, UniProt P24941). To be noted: cited from earlier work.
In a further data set the target is T1, FLT3 (Homo sapiens, UniProt P36888).
T1 sequence (P36888 27-993): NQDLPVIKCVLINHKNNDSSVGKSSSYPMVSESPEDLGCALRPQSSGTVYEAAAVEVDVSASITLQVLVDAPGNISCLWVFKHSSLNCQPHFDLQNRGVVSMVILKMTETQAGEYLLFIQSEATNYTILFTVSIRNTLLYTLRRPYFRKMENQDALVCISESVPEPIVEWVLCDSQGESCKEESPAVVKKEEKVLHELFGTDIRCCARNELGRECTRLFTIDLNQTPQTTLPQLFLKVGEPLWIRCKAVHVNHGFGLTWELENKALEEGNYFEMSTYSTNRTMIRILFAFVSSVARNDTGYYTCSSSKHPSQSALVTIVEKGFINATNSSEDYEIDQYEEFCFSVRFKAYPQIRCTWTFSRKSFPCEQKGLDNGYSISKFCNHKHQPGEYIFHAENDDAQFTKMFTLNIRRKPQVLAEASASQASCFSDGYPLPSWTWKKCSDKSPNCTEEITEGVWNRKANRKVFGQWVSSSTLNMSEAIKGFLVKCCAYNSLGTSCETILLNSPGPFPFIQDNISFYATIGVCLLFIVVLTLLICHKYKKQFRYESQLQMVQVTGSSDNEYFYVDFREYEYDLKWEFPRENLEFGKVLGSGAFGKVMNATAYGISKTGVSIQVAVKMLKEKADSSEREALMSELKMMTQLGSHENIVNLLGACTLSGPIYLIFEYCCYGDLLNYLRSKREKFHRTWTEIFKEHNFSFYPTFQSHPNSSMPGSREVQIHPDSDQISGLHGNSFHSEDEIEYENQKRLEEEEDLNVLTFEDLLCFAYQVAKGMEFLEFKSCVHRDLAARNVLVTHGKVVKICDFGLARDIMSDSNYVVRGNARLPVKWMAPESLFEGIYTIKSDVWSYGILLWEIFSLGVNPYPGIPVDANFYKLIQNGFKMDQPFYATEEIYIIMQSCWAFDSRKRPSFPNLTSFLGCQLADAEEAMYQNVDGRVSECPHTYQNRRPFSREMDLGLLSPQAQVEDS
To be noted: cited from earlier work.

The target in a further data set is CDK7 (Homo sapiens, UniProt P50613). The settings on record: cited from earlier work.
Sequence of CDK7 (P50613 whole entry): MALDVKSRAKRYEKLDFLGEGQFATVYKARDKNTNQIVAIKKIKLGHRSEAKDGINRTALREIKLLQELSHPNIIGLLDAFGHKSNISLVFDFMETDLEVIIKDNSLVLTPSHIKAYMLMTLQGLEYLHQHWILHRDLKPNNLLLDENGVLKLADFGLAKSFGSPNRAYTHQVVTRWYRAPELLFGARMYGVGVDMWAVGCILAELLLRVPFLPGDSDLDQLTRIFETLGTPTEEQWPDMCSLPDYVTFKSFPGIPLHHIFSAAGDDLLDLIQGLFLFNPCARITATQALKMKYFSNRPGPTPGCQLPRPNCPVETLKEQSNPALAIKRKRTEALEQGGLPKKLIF
Sequence of CDK7 (P51946 whole entry partner): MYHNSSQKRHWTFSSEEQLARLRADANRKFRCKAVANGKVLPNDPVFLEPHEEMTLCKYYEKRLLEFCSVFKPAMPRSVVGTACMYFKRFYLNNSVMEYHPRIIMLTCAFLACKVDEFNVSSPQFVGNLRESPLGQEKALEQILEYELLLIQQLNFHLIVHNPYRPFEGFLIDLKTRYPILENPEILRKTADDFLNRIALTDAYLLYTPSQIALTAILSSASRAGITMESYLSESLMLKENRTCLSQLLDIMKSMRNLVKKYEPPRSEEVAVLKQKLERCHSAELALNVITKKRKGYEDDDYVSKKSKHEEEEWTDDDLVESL
Sequence of CDK7 (P51948 whole entry partner): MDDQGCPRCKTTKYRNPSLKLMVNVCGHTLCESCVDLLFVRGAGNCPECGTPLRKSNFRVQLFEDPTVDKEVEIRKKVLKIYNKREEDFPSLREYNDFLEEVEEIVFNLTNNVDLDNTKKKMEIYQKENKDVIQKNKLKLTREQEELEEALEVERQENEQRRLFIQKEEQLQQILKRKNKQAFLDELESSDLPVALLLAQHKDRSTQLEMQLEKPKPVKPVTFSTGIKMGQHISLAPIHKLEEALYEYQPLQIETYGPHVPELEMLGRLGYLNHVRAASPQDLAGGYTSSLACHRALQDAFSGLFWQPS

Sequence of JAK2 (O60674 whole entry): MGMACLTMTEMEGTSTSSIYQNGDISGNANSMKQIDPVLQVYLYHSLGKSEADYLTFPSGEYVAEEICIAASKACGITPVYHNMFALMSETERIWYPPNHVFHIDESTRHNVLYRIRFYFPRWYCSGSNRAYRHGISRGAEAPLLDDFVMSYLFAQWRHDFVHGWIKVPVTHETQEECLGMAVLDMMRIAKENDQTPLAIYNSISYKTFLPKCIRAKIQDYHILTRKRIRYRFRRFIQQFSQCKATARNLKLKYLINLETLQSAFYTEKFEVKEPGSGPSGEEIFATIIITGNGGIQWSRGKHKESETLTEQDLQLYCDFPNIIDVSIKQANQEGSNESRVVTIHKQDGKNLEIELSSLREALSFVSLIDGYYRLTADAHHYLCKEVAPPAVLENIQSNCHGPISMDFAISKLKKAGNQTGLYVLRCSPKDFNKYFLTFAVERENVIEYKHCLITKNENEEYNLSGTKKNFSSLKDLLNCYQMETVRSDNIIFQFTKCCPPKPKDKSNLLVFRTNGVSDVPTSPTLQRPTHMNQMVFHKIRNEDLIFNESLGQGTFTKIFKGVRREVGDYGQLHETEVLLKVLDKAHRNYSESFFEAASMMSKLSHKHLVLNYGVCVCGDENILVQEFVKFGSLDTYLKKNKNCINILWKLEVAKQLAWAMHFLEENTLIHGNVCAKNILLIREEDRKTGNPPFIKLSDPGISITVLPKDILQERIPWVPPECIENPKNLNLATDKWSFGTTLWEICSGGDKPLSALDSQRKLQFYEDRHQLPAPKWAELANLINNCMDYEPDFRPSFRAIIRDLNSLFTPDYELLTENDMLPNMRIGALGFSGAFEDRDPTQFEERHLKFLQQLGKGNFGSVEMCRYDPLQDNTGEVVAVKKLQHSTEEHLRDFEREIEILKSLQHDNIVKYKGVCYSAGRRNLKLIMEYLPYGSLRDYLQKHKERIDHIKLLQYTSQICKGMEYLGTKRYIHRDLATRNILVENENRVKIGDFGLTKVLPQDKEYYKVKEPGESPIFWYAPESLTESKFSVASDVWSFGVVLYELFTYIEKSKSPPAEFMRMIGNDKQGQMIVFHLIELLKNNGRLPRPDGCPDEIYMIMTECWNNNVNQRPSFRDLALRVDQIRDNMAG
Sequence of CDK5 (Q00535 whole entry): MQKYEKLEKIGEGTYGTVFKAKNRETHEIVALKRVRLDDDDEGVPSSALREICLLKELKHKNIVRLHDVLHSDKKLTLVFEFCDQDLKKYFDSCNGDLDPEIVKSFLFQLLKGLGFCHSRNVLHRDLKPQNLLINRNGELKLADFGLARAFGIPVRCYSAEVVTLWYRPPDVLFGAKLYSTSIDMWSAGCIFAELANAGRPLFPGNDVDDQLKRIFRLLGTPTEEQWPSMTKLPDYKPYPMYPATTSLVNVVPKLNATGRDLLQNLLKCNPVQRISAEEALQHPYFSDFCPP
Sequence of CDK5 (Q15078 whole entry partner): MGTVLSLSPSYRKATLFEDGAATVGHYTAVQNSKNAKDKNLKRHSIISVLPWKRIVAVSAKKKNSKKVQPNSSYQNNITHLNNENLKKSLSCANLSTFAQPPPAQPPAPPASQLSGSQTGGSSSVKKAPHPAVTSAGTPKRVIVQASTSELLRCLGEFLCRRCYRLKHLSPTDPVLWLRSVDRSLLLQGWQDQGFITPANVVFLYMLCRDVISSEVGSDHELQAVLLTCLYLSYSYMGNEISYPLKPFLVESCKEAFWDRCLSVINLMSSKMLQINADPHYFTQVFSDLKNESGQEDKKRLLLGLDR
Sequence of CDK1 (P06493 whole entry): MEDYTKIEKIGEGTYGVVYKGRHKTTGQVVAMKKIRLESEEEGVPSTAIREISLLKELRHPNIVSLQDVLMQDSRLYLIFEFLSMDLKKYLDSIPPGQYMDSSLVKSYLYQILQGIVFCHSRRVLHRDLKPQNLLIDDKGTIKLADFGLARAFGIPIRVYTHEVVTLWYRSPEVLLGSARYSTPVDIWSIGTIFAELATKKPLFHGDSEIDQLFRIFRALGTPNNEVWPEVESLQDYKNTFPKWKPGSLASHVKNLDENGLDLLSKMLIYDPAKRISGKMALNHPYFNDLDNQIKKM
Sequence of CDK1 (P14635 whole entry partner): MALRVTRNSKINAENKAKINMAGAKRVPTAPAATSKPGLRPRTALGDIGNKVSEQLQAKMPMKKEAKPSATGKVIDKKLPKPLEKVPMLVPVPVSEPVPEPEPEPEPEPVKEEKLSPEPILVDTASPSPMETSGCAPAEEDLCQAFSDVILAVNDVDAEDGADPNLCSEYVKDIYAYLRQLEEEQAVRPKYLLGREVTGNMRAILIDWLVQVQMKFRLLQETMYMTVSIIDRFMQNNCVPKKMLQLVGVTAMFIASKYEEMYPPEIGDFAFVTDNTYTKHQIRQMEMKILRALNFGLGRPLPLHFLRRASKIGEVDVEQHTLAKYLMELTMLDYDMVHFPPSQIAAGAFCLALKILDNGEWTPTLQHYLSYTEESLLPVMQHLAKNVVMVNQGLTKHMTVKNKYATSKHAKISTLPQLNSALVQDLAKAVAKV
Sequence of CDK9 (P50750 whole entry): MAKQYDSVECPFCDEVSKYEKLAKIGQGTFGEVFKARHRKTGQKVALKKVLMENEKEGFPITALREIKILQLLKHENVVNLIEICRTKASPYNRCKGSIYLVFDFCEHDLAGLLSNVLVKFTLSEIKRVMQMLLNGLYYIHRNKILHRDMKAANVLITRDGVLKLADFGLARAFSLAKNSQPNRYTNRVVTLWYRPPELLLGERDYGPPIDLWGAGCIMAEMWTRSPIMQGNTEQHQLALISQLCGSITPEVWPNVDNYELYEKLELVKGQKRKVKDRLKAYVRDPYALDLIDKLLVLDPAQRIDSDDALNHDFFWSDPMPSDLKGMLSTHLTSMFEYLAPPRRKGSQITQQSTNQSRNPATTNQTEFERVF
Sequence of CDK9 (O60563 whole entry partner): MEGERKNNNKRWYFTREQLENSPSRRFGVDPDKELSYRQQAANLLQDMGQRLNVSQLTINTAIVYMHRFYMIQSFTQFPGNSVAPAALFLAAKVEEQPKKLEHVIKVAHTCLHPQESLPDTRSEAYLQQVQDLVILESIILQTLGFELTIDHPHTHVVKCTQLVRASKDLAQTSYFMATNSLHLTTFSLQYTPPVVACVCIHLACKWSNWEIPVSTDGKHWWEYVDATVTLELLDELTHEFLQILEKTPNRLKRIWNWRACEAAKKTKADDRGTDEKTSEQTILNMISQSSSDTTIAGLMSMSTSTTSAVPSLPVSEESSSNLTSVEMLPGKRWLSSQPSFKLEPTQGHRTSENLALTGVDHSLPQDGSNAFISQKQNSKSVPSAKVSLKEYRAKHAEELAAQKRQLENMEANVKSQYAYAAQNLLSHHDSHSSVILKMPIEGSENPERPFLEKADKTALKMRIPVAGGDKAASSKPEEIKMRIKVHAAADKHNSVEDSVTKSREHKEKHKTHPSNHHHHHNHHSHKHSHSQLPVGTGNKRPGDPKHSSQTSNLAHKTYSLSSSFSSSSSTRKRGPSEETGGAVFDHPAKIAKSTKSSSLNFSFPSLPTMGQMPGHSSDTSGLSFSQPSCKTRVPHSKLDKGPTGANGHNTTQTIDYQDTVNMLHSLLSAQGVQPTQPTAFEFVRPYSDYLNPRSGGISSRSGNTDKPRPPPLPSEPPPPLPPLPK

Turning to `CN1C/C=C/CCOc2cccc(c2)-c2ccnc(n2)Nc2cccc(c2)C1` [TG02 Form VIII (HCl), (16E)-14-methyl-20-oxa-5,7,14,26-tetraazatetracyclo[19.3.1.1(2,6).1(8,12)]heptacosa-1(25),2(26),3,5,8(27),9,11,16,21,23-decaene], the “Form conversion over time” value in data set [1] is reported as “gradually converted to TG02 Form VI (HCl) over time”.

With `CN1C/C=C/CCOc2cccc(c2)-c2ccnc(n2)Nc2cccc(c2)C1` [TG02, (16E)-14-methyl-20-oxa-5,7,14,26-tetraazatetracyclo[19.3.1.1(2,6).1(8,12)]heptacosa-1(25),2(26),3,5,8(27),9,11,16,21,23-decaene], in [2], the “Inhibition of signaling pathways downstream of CDKs, JAK2 and FLT3” value is “dose-dependently inhibits”. Moreover, at CDK9, the “Inhibition of CDK9” value is “inhibits”. For the same compound, the “Inhibition of JAK2” value on JAK2 is “inhibits”. Besides, the “Inhibition of CDK5” value on CDK5 is recorded as “inhibits”. The “Inhibition of CDK1” value on CDK1 is listed as “inhibits”. For the same compound, the Anti-proliferative activity result in the data set on tumor cell lines (broad range of tumor cell lines) is “anti-proliferative”. Also, the “Cell cycle arrest and apoptosis” value in the data set with tumor cell lines (tumor cell lines) was “inducing Gi cell cycle arrest and apoptosis”. In addition, the “Sensitivity of primary cultures to TG02” value in data set [3] is “very sensitive”. The “Inhibition of CDK2” value on CDK2 is listed as “inhibits”. Besides, the “Inhibition of FLT3” value on FLT3 was “inhibits”. Besides, the “Inhibition of CDK7” value at CDK7 is given as “inhibits”.
